Data set [1] relates to PDGFR. The conditions noted are these: cited from earlier work.
The test system of data set [2] is collagen-induced arthritis (CIA) in DBA/1 mice. The conditions noted are these: for severity of CIA (scores, paw measurements), direct comparison study: CGP53716 daily i.p. from 1 day prior to induction.
The conditions of data set [3]: mice, cited from earlier work; for trough plasma level: 15 hours after dosing.
For data set [4], the system named is established collagen-induced arthritis (CIA) in DBA/1 mice. Nature of the data set: Treatment of established collagen-induced arthritis (CIA). The data set is classed as in vivo, mouse.
Data set [5] has as its system PDGFR.
In a further data set the test system is FGFR. The conditions noted are these: literature, cited from earlier work.
Data set [6] deals with T1, c-Kit (Homo sapiens, UniProt P10721). The conditions noted are these: Table 5; read-out: Kit Inhibitory Profile (IC50); cited from earlier work.
T1 sequence (P10721 544-976 limits assumed): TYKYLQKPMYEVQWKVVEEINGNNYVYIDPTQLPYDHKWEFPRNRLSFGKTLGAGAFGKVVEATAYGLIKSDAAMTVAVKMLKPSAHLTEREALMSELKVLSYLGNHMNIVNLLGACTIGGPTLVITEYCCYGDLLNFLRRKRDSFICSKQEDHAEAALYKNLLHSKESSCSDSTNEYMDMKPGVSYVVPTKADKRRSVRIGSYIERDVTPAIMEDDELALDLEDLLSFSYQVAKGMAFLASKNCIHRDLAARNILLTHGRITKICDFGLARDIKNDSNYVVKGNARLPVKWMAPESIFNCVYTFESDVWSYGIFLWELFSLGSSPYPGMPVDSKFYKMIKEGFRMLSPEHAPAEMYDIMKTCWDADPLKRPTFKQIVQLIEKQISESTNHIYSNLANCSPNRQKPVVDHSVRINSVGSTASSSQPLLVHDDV
The target in another data set is Abl (Homo sapiens, UniProt P00519). The conditions noted are these: literature; cited from earlier work.
Chain of Abl (P00519 whole entry, species assumed): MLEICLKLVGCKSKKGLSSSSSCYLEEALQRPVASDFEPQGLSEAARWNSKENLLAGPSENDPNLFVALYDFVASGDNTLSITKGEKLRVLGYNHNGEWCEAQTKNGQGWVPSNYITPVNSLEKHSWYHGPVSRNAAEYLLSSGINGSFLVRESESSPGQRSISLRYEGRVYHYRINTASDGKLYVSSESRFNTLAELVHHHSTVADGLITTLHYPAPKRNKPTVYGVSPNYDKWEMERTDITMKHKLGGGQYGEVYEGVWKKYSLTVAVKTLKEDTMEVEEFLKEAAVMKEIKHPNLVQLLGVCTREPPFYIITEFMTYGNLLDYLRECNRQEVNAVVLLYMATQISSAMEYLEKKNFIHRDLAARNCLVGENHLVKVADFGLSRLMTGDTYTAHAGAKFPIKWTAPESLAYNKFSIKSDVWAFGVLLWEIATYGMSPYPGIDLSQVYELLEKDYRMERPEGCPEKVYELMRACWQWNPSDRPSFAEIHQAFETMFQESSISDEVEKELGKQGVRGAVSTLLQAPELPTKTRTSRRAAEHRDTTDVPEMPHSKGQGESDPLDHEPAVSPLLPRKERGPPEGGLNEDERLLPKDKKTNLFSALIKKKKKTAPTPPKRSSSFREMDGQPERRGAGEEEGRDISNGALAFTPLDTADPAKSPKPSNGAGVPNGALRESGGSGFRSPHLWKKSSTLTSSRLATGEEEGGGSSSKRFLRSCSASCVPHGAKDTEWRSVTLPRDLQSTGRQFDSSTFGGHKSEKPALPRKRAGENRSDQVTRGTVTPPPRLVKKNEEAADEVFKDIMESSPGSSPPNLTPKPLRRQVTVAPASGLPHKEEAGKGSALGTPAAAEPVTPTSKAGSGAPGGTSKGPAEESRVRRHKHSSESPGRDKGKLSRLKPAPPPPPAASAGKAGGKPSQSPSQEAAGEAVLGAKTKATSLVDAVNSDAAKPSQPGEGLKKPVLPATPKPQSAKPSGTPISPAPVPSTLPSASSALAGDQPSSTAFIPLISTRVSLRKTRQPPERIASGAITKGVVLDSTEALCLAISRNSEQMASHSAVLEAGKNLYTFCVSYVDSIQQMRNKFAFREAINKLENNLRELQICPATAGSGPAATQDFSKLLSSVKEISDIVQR
Data set [7] has as its system EGFR, FGFR, insulin receptors, Src, Lyn, PKA and PKC. The conditions noted are these: clinically relevant concentrations; cited from earlier work.
For data set [8] the following is noted: I.P. 100 mg/kg, cited from earlier work.
In data set [9] the target is T1, c-Kit. Nature of the data set: In vitro c-Kit phosphorylation assay (HTScan c-Kit Kinase Assay). The data set is classed as biochemical. Also on record: purchased Cell Signaling. To be noted: 30 minutes, time-resolved fluorescence, FIG. 11A.
Data set [10] deals with T2, c-Kit (Mus musculus, UniProt P05532).
T2 construct: endogenous in cells; host or cells: C1.MC/57.1 mouse mast cell line
T2 sequence (P05532 25-979): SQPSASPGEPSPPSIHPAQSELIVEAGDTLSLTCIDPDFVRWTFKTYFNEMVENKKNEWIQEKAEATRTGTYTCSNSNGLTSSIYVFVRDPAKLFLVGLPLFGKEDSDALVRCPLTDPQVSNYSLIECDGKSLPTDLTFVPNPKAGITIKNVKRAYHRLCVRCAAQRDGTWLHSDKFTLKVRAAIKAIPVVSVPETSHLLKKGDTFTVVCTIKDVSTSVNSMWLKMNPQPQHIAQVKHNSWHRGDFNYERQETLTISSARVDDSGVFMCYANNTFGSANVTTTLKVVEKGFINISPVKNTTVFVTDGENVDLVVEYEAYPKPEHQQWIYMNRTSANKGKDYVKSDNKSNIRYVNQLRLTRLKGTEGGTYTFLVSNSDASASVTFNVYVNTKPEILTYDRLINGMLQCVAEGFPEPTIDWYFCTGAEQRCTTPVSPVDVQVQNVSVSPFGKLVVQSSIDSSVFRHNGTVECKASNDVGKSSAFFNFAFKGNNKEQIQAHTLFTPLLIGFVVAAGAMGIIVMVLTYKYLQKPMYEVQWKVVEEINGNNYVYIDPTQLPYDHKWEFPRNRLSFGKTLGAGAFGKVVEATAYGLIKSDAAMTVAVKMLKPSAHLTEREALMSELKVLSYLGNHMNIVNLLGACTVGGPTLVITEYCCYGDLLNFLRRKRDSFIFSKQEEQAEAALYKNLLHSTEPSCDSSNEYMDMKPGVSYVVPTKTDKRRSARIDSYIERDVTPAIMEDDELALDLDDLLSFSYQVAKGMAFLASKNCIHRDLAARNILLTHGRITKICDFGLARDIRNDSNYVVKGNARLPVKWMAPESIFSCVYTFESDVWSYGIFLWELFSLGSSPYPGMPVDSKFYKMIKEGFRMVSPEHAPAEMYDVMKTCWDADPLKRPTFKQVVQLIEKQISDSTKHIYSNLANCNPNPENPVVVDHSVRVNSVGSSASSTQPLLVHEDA
Nature of the data set: SCF-induced mast cell signaling, immunoblot and RPP lysate array. In kind it is cell-based. To be noted: mast cells. Background: Immunoblotting shows a protein as a band on a membrane.

In another data set the test system is synovial fluid monocytes. The experiment in a line: M-CSF-induced differentiation of RA synovial fluid monocytes to macrophages (morphology). To be noted: 5 μM imatinib with M-CSF, 72 hours. In kind it is cell-based, human. The source says:
H. Macrophage isolation and stimulation. […]. […]

Data set [11] relates to autoreactive B cell responses in mice with CIA. Nature of the data set: Synovial array profiling of serum autoantibodies in CIA mice. The data set is classed as in vivo, mouse. The conditions noted are these: 100 mg/kg imatinib, day 49 sera. As to the method: M. Synovial array analysis. As described (Robinson, W. H., et al., Nat Med 8:295-301, (2002); Hueber, W., et al., Arthritis Rheum 52:2645-2655, (2005)), 500+ peptides and proteins representing autoantigens were printed on SuperEpoxy slides (TeleChem), arrays were incubated with 1:150 dilutions of mouse sera, followed by Cy3-labeled anti-mouse IgG/M antibody (Jackson Immunoresearch), and scanned using a GenePix 4000B scanner. Median feature intensities for each antigen were calculated from the 4-8 duplicate features representing each antigen.
. A robotic microarrayer was used to produce synovial arrays containing a spectrum of proteins and peptides representing candidate autoantigens in RA and CIA (Robinson, W. H., et al., Nat Med 8:295-301, (2002); Hueber, W., et al., Arthritis Rheum 52:2645-2655, (2005)). Arrays were incubated with 1:150 dilutions of sera, autoantibody binding detected with Cy3-labeled anti-mouse IgG/M, and arrays scanned and median fluorescence for each antigen determined. […]. Cluster and TreeView software was applied to order and display the array reactivity as a heatmap. […]

A further data set relates to EAE in C57B/6 mice. Nature of the data set: Experimental autoimmune encephalomyelitis (EAE). The data set is classed as in vivo, mouse. To be noted: 100 mg/kg twice daily vs PBS-vehicle.
For data set [12], the system named is B cells from naïve DBA/1 mice.
Data set [13] relates to splenocytes expressing CII-specific TCR.
The next data set relates to anti-CII T cells. To be noted: mouse, 24 h.
The next data set concerns C1.MC/57.1 mast cells. Nature of the data set: SCF-stimulated mast cell cytokine production. To be noted: 100 ng/mL SCF, 48 hrs, imatinib 1 μM and 5 μM.
For data set [14] the following is noted: rats, oral 50 mg/kg; cited from earlier work.
The mark [15] stands for this setting: Table 7, read-out: PDGFR Inhibitory profile (with IC50s when available).
Where [16] appears, read: read-out: IC50 for PDGFbb-induced FLS proliferation (PDGFR), FLS from human RA patient, H3-thymidine incorporation, FIG. 11B.
[17] abbreviates: Table 5, read-out: PDGFR Inhibitory Profile (IC50).
Setting [18] is: 0-5 μM imatinib, SCF 10 minutes, immunoblot.
Where [19] appears, read: CII-specific (anti-CII) TCR transgenic, 1 μM.
Setting [20] is: CII-specific (anti-CII) TCR transgenic, 5 μM.
Setting [21] is: CII-specific (anti-CII) TCR transgenic, 10 μM.
The mark [22] stands for this setting: CII-specific TCR transgenic, 1 μM.
Where [23] appears, read: CII-specific TCR transgenic, 5 μM.
Where [24] appears, read: CII-specific TCR transgenic, 10 μM.

“And” between values parts separate entries of the source, which are not always exact repeats. Equal values may be shown once. “Also recorded” adds a separate entry of the source. Read-outs that look alike come from different tables or passages of the source.

Regarding `CC1(C)CNc2cc(NC(=O)c3cccnc3NCc3ccncc3)ccc21` [AMG 706], the “PDGFR Inhibitory profile (with IC50s when available)” value (“PDGFR Inhibitory profile” for short) with PDGFR [1] (Table 7) is “potent”.
For `Cc1[nH]c(/C=C2\C(=O)Nc3ccccc32)c(C)c1CCC(=O)O` [SU6668], the IC50 in the data set with PDGFR [1] (setting [15]) was 10 nM.
In the case of `CC(C)c1c(C(=O)Nc2ccccc2)c(-c2ccccc2)c(-c2ccc(F)cc2)n1CC[C@@H](O)C[C@@H](O)CC(=O)O` [Atorvastatin], in data set [2] (atorvastatin alone, 1.25 to 20 mg/kg, FIG. 16B), the “clinical scores of CIA” value was “not effective at decreasing the clinical scores of CIA”.
For the molecule `Cc1cn(-c2cc(NC(=O)c3ccc(C)c(Nc4nccc(-c5cccnc5)n4)c3)cc(C(F)(F)F)c2)cn1` [Nilotinib], the IC50 in the data set with PDGFR [1] (setting [15]) is 1 nM.
In the case of `Cn1c(=O)c(-c2c(Cl)cccc2Cl)cc2cnc(Nc3cccc(CO)c3)nc21` [PD166326], in data set [3] (25 mg/kg), the trough plasma level result is listed as “approximately 0.005 μM” and the peak plasma level is 0.026 µM. Moreover, in data set [3] (50 mg/kg), the trough plasma level was around 0.018 µM and the peak plasma level is 0.098 µM.
In the case of `COc1cc2c(Oc3ccc4[nH]c(C)cc4c3F)ncnc2cc1OCCCN1CCCC1` [Cediranib], the “PDGFR Inhibitory profile” value in the data set on PDGFR [1] (Table 7) is “potent?”.
As for `COc1ccc(COc2ccc(Cc3cnc(N)nc3N)cc2OC)cc1` [GW2580], the “severity of established CIA (mean visual arthritis score, paw thickness)” value in data set [4] (50 mg/kg for 5 days vs vehicle) is “highly effective at treating established collagen-induced arthritis; also recorded: reduced the severity of arthritis”. The IC50 in the data set on PDGFR [5] (setting [16]) is 4300 nM and 4350 nM; in the data set on PDGFR [5] (read-out: PDGFR Inhibitory Profile (IC50), Table 5, value referenced to FIG. 11) it was 4300 nM.
Consider `Clc1ccc(Nc2nnc(Cc3ccncc3)c3ccccc23)cc1` [Vatalanib], for which the IC50 in the data set on PDGFR [1] (setting [15]) was […].
`Cc1ccc(NC(=O)c2ccccc2)cc1Nc1nccc(-c2cccnc2)n1` [CGP53716]: the IC50 in the data set on PDGFR [5] (setting [16]) was […]; in the data set with PDGFR [1] (setting [17]), […]; with FGFR, 1100 nM; at c-Kit [6] it was […]; on Abl, 600 nM; at c-Kit [9], 2 nM. In [2] (FIG. 13C-13D), the “severity of CIA (scores, paw measurements), direct comparison study” value was “statistically significant reductions in the severity of CIA”. Moreover, the “efficacy at preventing and treating CIA relative to imatinib” value in [2] (FIG. 13C-13D) is “nearly as effective as imatinib”. Besides, the “inhibition of other kinases including EGFR, FGFR, insulin receptors, Src, Lyn, PKA and PKC” value in data set [7] is listed as “does not inhibit other kinases at clinically relevant concentrations”. Moreover, the values for the plasma level in [8] (8 hours after dosing) and in data set [8] (24 hours after dosing) were 1600 nM and 1900 nM, respectively.
As for `Cc1ccc(NC(=O)c2ccc(CN3CCN(C)CC3)cc2)cc1Nc1nccc(-c2cccnc2)n1` [Imatinib], in data set [4] (33 and 100 mg/kg, p<0.05 after 10 days of treatment), the “progression of established arthritis (visual score, mean paw thickness)” value is “inhibited the progression of established arthritis”. The “histopathology: synovitis, pannus, and erosion scores” value was “statistically significant reductions in synovitis, pannus, and erosion scores” in [4] (treatment of established CIA, 33 and 100 mg/kg, p<0.05); “statistically significant reductions in synovitis, pannus, and erosion scores” in data set [2] (CIA prevention study, 33 and 100 mg/kg, p<0.01 synovitis and erosion, p<0.05 pannus). In addition, at c-Kit [10] (setting [18]), the “SCF-induced phosphorylation of c-Kit” value is given as “potently inhibited SCF-induced phosphorylation of c-Kit”. Besides, the “phosphorylation of downstream Akt (Ser 473)” value at c-Kit [10] (setting [18]) is listed as “corresponding reduction in phosphorylation of downstream Akt (Ser 473)”. On c-Kit [10] (1 and 5 μM imatinib), the “SCF-induced activation of kinases downstream of c-Kit (ERK, JNK, p38), RPP array” value was “inhibited SCF-induced activation of diverse protein tyrosine kinases downstream of c-Kit”. In the data set with synovial fluid monocytes, the “differentiation of synovial fluid monocytes into macrophages (morphology)” value is given as “blocked the differentiation of synovial fluid monocytes from human RA patients into macrophages”. The “expansion (epitope spreading) of autoreactive B cell responses” value in data set [11] is “reduced expansion of autoreactive B cell responses”. For the same molecule, the “onset and severity of EAE” value in the data set with EAE in C57B/6 mice is “a delay in the onset and reduced severity of EAE”. Also, the “CIA efficacy compared to PBS vehicle-control” value in [2] (15 mg/kg imatinib, FIG. 16A) is given as “relatively little efficacy”. In addition, the “severity of CIA (mean visual arthritis score, mean paw thickness)” value in data set [2] (33 or 100 mg/kg orally twice-daily from 1 day prior to induction, p<0.01 after day 38) is given as “significant reductions in the severity of CIA”. For the same molecule, in [2] (33 or 100 mg/kg orally twice-daily, day 49), the “incidence of CIA” value is recorded as “reduced the incidence of CIA”. Further, the “severity of CIA (scores, paw measurements), direct comparison study” value in data set [2] (FIG. 13C-13D) is reported as “statistically significant reductions in the severity of CIA”. For the same molecule, the entries for the “IgM production by LPS-stimulated B cells” value in [12] (imatinib 1 μM) and in data set [12] (imatinib 10 μM) were “mildly reduced” and “most significant reduction”, respectively. The “production of IFN-γ and TNFα by CII-stimulated TCR transgenic T cells” value in data set [13] (CII 20 μg/mL, 3.3 μM imatinib) is recorded as “moderate reduction”. Also, the “production of IFN-gamma, IL-4, and TNFα by CII-stimulated TCR transgenic T cells” value in [13] (CII 20 μg/mL, 10 μM imatinib) is “further reduced production”. Further, the “anti-CII T cell production of IL-2” value in data set [13] (any imatinib concentration tested) is listed as “not significantly reduced”. For the same molecule, the “Early apoptosis (PI− AnnV+)” value with anti-CII T cells (setting [19]) is recorded as 3.8%; in the data set with anti-CII T cells (setting [20]), 5.2%; in the data set with anti-CII T cells (setting [21]), 6.2%; with anti-CII T cells (setting [22]) it was 4.6%; in the data set with anti-CII T cells (setting [23]), 5.3%; with anti-CII T cells (setting [24]), 6.6%. For the same molecule, the “Early apoptosis (PI− AnnV+)” value worked out at 3.4% with anti-CII T cells (anti-CII TCR transgenic, 1 μM); 5.9% with anti-CII T cells (anti-CII TCR transgenic, 5 μM); 6.1% in the data set on anti-CII T cells (anti-CII TCR transgenic, 10 μM). The “Late apoptosis (PI+ AnnV+)” value in the data set with anti-CII T cells (setting [19]) worked out at 0.6%; in the data set on anti-CII T cells (setting [20]) it was 1.2%; with anti-CII T cells (setting [21]) it was 0.9%; in the data set on anti-CII T cells (setting [22]), 1.1%; with anti-CII T cells (setting [23]), 0.7%; in the data set on anti-CII T cells (setting [24]), 0.9%. In addition, the “Late apoptosis (PI+ AnnV+)” value worked out at 0.5% in the data set with anti-CII T cells (anti-CII TCR transgenic, 1 μM); 0.8% in the data set on anti-CII T cells (anti-CII TCR transgenic, 5 μM); 0.9% in the data set with anti-CII T cells (anti-CII TCR transgenic, 10 μM). Besides, the “Live cells (PI− AnnV−)” value came to 95.5% in the data set with anti-CII T cells (setting [22]), 93.6% in the data set with anti-CII T cells (setting [23]) and 93.7% in the data set with anti-CII T cells (setting [24]). In the data set on C1.MC/57.1 mast cells, the “mast cell production of TNFα, GM-CSF, and IL-6” value was “dramatically reduced mast cell production of TNFα, GM-CSF, and IL-6”.
Regarding `CNC(=O)c1cc(Oc2ccc(NC(=O)Nc3ccc(Cl)c(C(F)(F)F)c3)cc2)ccn1` [Sorafenib], the “PDGFR Inhibitory profile” value in the data set on PDGFR [1] (Table 6) is recorded as “potent”.
For the molecule `Cc1[nH]c(/C=C2\C(=O)Nc3ccc(Br)cc32)c(C)c1CCC(=O)O` [SU9518], the IC50 was 50 nM in the data set on PDGFR [1] (setting [17]); 53 nM in the data set on PDGFR [1] (literature, read-out: IC50 PDGFR (PDGFRα/β)); 4400 nM with FGFR (unit inferred). In [14], the peak plasma level is 1.76 µM. In addition, in data set [14], the “plasma level 8 hours after dosing” value was “above 1 μM”.
